{"source": "patent EP1311531B1", "about": "“STEROID DERIVED ANTIBIOTICS” (Brigham Young University, priority 2000, dated 2002)", "key": {"[1]": {"experiment": "Minimum hemolytic concentration (MHC)", "type": "cell-based", "settings": "Table 10", "method": "Minimum inhibition concentrations (MIC) and minimum hemolytic concentrations (MHC) were measured as described in Li et al., Antimicrob. Agents. Chemother., 1999, 43, 1347. […]"}, "[2]": {"tested_on": "Salmonella typhimurium ATCC 14028", "experiment": "Sensitization to erythromycin, novobiocin or rifampicin (permeabilization, FIC)", "type": "cell-based", "method": "(§1) FICs can be performed by checkerboard titrations of compounds in one dimension of a microtiter plate, and of antibiotics in the other dimension, for example. The FIC is calculated by looking at the impact of one antibiotic on the MIC of the other and vice versa. […] Preferably, an FIC of less than 0.5 is obtained for synergism. As used herein, FIC can be determined as follows: FIC = (MIC(compound in combination))/(MIC(compound alone)) + (MIC(antibiotic in combination))/(MIC(antibiotic alone)) [formula]\n(§2) Aliquots of 1 mL of the suspension were added to test tubes containing 1 mL TSB and incrementally varied concentrations of cholic acid derivatives and/or erythromycin or novobiocin. In the sensitization experiments, erythromycin or novobiocin were added 15 minutes later than the cholic acid derivatives. The samples were subjected to stationary incubation at 37°C for 24 hours. Sample turbidity was determined by measuring absorption at 760 nm (HP 8453 UV-Visible Chemstation, Hewlett Packard). Additionally, an alliquot from each of the samples showing no measurable turbidity was subcultured on TSA plates (alliquots were diluted to provide fewer than 300 CFU). Colonies that grew on the subculture after overnight incubation were counted and the number of CFU/mL in the samples were calculated. The calculated values were compared to the number of CFU/mL in the original inoculum.\n(§3) Concentrations of 0.5, 1.0 or 3.0 µg/mL of these antibiotics were used, and the concentrations of the cholic acid derivatives required to inhibit bacterial growth of Gram-negative strains were determined."}, "[3]": {"tested_on": "Pseudomonas aeruginosa ATCC 27853", "experiment": "Sensitization to erythromycin, novobiocin or rifampicin (permeabilization, FIC)", "type": "cell-based", "method": "as §1, §2, §3"}, "[4]": {"tested_on": "Escherichia coli ATCC 25922", "settings": "ATCC25922", "quoted_text": "(§6) FICs can be performed by checkerboard titrations of compounds in one dimension of a microtiter plate, and of antibiotics in the other dimension, for example. The FIC is calculated by looking at the impact of one antibiotic on the MIC of the other and vice versa. […] As used herein, FIC can be determined as follows: FIC = (MIC(compound in combination))/(MIC(compound alone)) + (MIC(antibiotic in combination))/(MIC(antibiotic alone)) [formula]\n(§7) Aliquots of 1 mL of the suspension were added to test tubes containing 1 mL TSB and incrementally varied concentrations of cholic acid derivatives and/or erythromycin or novobiocin. […] Additionally, an alliquot from each of the samples showing no measurable turbidity was subcultured on TSA plates (alliquots were diluted to provide fewer than 300 CFU). Colonies that grew on the subculture after overnight incubation were counted and the number of CFU/mL in the samples were calculated. The calculated values were compared to the number of CFU/mL in the original inoculum."}, "E. coli (ATCC 10798)": {"tested_on": "E. coli (ATCC 10798)", "experiment": "Sensitization to erythromycin or novobiocin (outer membrane permeabilization, FIC)", "type": "cell-based, Escherichia coli", "settings": "Table 9; Escherichia coli (ATCC 10798)", "method": "as §1, §2\nThey were also tested for the ability to permeabilize the outer membrane of Gram-negative bacteria, causing sensitization to hydrophobic antibiotics that cannot cross the outer membrane. The permeabilization of the outer membrane was measured using erythromycin and novobiocin."}, "[5]": {"tested_on": "Klebsiella pneumonia ATCC 13883", "experiment": "Sensitization to erythromycin, novobiocin or rifampicin (permeabilization, FIC)", "type": "cell-based, Klebsiella pneumoniae"}, "[6]": {"tested_on": "Escherichia coli ATCC 25922", "experiment": "Sensitization to erythromycin, novobiocin or rifampicin (permeabilization, FIC)", "settings": "Table 13; with rifampicin (order of b151); Escherichia coli ATCC 25922", "quoted_text": "as §6, §7"}, "[7]": {"tested_on": "Escherichia coli ATCC 25922", "experiment": "MIC and MBC measurement", "type": "cell-based", "settings": "Escherichia coli, ATCC25922, Table 10, Escherichia coli ATCC 25922; for MIC: read-out: MIC", "from_the_text": "(§4) General: Microorganisms. Reference strains were purchased from the American Type Culture Collection (Rockville, MD) or Bactrol disks from Difeo Laboratories (Detroit, MI). The following specific ATCC strains were used: 10798 Escherichia coli, 25922 Escherichia coli, 13883 Klebsiella pneumoniae, 27853 Pseudomonas aeruginosa, 14028 Salmonella typhimurium, 29212 Enterococcus faecalis, 25923 Staphylococcus aureus, 19615 Streptococcus pyogenes, and 90028 Candida albicans. Bacterial strains were maintained on Mueller-Hinton agar plates, and Candida albicans was maintained on Sabouraud Dextrose agar plates.\n(§5) Tryptic soy broth (TSB) was made by dissolving 27.5 grams of tryptic soy broth without dextrose (DIFCO Laboratories) in 1 liter of deionized water and sterilizing at 121 °C for 15 minutes. Solid agar (TSA) plates were made by dissolving 6.4 grams of tryptic soy broth and 12 grams of agar (purified grade, Fischer Scientific) in 800 mL of deionized water and sterilizing at 121 °C for 20 minutes. Aliquots (20 mL) of the homogeneous solution were then poured in sterile plastic petri dishes (100 x 15 mm, Fisher Scientific). Solutions of compounds were made by dissolving the HCl salt of the respective compound into an appropriate amount of deionized and sterilized water followed by microfiltration.\nas §2, with “inoculum. […]” for “inoculum.”"}, "[8]": {"tested_on": "Staphylococcus aureus ATCC 25923", "experiment": "MIC and MBC measurement", "type": "cell-based", "settings": "ATCC25923, Table 10, Staphylococcus aureus ATCC 25923; for MIC: read-out: MIC", "from_the_text": "as §4, §5\nas §2, with “inoculum. […]” for “inoculum.”"}, "[9]": {"settings": "Table 11, with erythromycin (order of b151)"}, "[10]": {"settings": "Table 12, with novobiocin (order of b151)"}, "[11]": {"settings": "Table 12, with novobiocin (order of b151), Pseudomonas aeruginosa ATCC 27853"}, "[12]": {"settings": "Table 13, with rifampicin (order of b151), Pseudomonas aeruginosa ATCC 27853^b (footnote b not given)"}, "[13]": {"settings": "Table 12, with novobiocin (order of b151), Klebsiella pneumonia ATCC 13883"}, "[14]": {"settings": "Table 13, with rifampicin (order of b151), Klebsiella pneumonia ATCC 13883"}}, "note": "Where two headings read alike, the source gives them in different places."}
{"smiles": "C[C@]12CC[C@@H](OCCCN)C[C@H]1C[C@@H](OCCCN)[C@@H]1[C@@H]2C[C@H](OCCCN)[C@]2(C)[C@@H](O)CC[C@@H]12", "note": "[Compound 106]", "values": [{"measurement": "MHC", "setting": "[1]", "result": ">100", "unit": "µg/mL"}, {"measurement": "FIC", "setting": "[2]; [9]", "result": 0.088}, {"measurement": "concentration required for bacterial growth inhibition", "setting": "[2]; [9]", "result": 7.1, "unit": "µg/mL"}, {"measurement": "FIC", "setting": "[2]; [10]", "result": 0.094}, {"measurement": "concentration required for bacterial growth inhibition", "setting": "[2]; [10]", "result": 8.4, "unit": "µg/mL"}, {"measurement": "FIC", "setting": "[3]; ATCC27853", "result": 0.22}, {"measurement": "concentration required for bacterial growth inhibition", "setting": "[3]; ATCC27853", "result": 16, "unit": "µg/mL"}, {"measurement": "concentration required for bacterial growth inhibition", "setting": "[3]; [11]", "result": 30, "unit": "µg/mL"}, {"measurement": "FIC", "setting": "[3]; [12]", "result": 0.17}, {"measurement": "concentration required for bacterial growth inhibition", "setting": "[4]", "result": 4.7, "unit": "µg/mL"}, {"measurement": "(a) Concentration required to lower the MIC of erythromycin from 70 to 1 µg/mL", "setting": "E. coli (ATCC 10798)", "result": 30, "unit": "µg/mL"}, {"measurement": "(b) MBC with 1 µg/mL erythromycin", "setting": "E. coli (ATCC 10798)", "result": 160, "unit": "µg/mL"}, {"measurement": "(d) Concentration required to lower the MIC of novobiocin from >500 to 1 µg/mL", "setting": "E. coli (ATCC 10798)", "result": 50, "unit": "µg/mL"}, {"measurement": "FIC^c (FIC values with erythromycin)", "setting": "E. coli (ATCC 10798)", "result": 0.23}, {"measurement": "FIC^c (FIC values with novobiocin)", "setting": "E. coli (ATCC 10798)", "result": 0.36}, {"measurement": "FIC", "setting": "[5]; ATCC13883", "result": 0.66}, {"measurement": "concentration required for bacterial growth inhibition", "setting": "[5]; ATCC13883", "result": 3.6, "unit": "µg/mL"}, {"measurement": "concentration required for bacterial growth inhibition", "setting": "[5]; [13]", "result": 8.9, "unit": "µg/mL"}, {"measurement": "FIC", "setting": "[5]; [14]", "result": 0.044}, {"measurement": "concentration required for bacterial growth inhibition", "setting": "[5]; [14]", "result": 1.8, "unit": "µg/mL"}, {"measurement": "FIC", "setting": "[6]", "result": 0.12}, {"measurement": "concentration required for bacterial growth inhibition", "setting": "[6]", "result": 4.2, "unit": "µg/mL"}, {"measurement": "MBC", "setting": "[7]", "result": 90, "unit": "µg/mL"}, {"measurement": "MIC", "setting": "[7]", "result": 80, "unit": "µg/mL"}, {"measurement": "MBC", "setting": "[8]", "result": 54, "unit": "µg/mL"}, {"measurement": "MIC", "setting": "[8]", "result": 8.6, "unit": "µg/mL"}]}
{"smiles": "CCCOCCC[C@@H](C)[C@H]1CC[C@H]2[C@@H]3[C@H](OCCCN)C[C@@H]4C[C@H](OCCCN)CC[C@]4(C)[C@H]3C[C@H](OCCCN)[C@]12C", "note": "[Compound 112]", "values": [{"measurement": "MHC", "setting": "[1]", "result": 5.9, "unit": "µg/mL"}, {"measurement": "FIC", "setting": "[2]; [9]", "result": 0.019}, {"measurement": "concentration required for bacterial growth inhibition", "setting": "[2]; [9]", "result": 0.20, "unit": "µg/mL"}, {"measurement": "FIC", "setting": "[2]; [10]", "result": 0.015}, {"measurement": "concentration required for bacterial growth inhibition", "setting": "[2]; [10]", "result": 0.39, "unit": "µg/mL"}, {"measurement": "FIC", "setting": "[3]; ATCC27853", "result": 0.59}, {"measurement": "concentration required for bacterial growth inhibition", "setting": "[3]; ATCC27853", "result": 1.0, "unit": "µg/mL"}, {"measurement": "concentration required for bacterial growth inhibition", "setting": "[3]; [11]", "result": 0.72, "unit": "µg/mL"}, {"measurement": "FIC", "setting": "[3]; [12]", "result": 0.15}, {"measurement": "concentration required for bacterial growth inhibition", "setting": "[4]", "result": 0.40, "unit": "µg/mL"}, {"measurement": "(a) Concentration required to lower the MIC of erythromycin from 70 to 1 µg/mL", "setting": "E. coli (ATCC 10798)", "result": 0.4, "unit": "µg/mL"}, {"measurement": "(b) MBC with 1 µg/mL erythromycin", "setting": "E. coli (ATCC 10798)", "result": 4.0, "unit": "µg/mL"}, {"measurement": "(d) Concentration required to lower the MIC of novobiocin from >500 to 1 µg/mL", "setting": "E. coli (ATCC 10798)", "result": 0.8, "unit": "µg/mL"}, {"measurement": "FIC^c (FIC values with erythromycin)", "setting": "E. coli (ATCC 10798)", "result": 0.048}, {"measurement": "FIC^c (FIC values with novobiocin)", "setting": "E. coli (ATCC 10798)", "result": 0.085}, {"measurement": "FIC", "setting": "[5]; ATCC13883", "result": 0.035}, {"measurement": "concentration required for bacterial growth inhibition", "setting": "[5]; ATCC13883", "result": 0.1, "unit": "µg/mL"}, {"measurement": "concentration required for bacterial growth inhibition", "setting": "[5]; [13]", "result": 0.19, "unit": "µg/mL"}, {"measurement": "FIC", "setting": "[5]; [14]", "result": 0.031}, {"measurement": "concentration required for bacterial growth inhibition", "setting": "[5]; [14]", "result": 0.11, "unit": "µg/mL"}, {"measurement": "FIC", "setting": "[6]", "result": 0.19}, {"measurement": "concentration required for bacterial growth inhibition", "setting": "[6]", "result": 0.81, "unit": "µg/mL"}, {"measurement": "MBC", "setting": "[7]", "result": 7.4, "unit": "µg/mL"}, {"measurement": "MIC", "setting": "[7]", "result": 6.6, "unit": "µg/mL"}, {"measurement": "MBC", "setting": "[8]", "result": 4.2, "unit": "µg/mL"}, {"measurement": "MIC", "setting": "[8]", "result": 0.55, "unit": "µg/mL"}]}
